# How the values were obtained:
# Anura [1] = experiment: Displacement of (-)-[3H]alprenolol from adrenergic receptor purified from frog erythrocytes
# Anura [2] = experiment: Displacement of (-)-[3H]alprenolol from adrenergic receptor purified from frog erythrocytes relative to isoproterenol
Compound,pKb (Anura [1]),Intrinsic activity (Anura [2])
CC(C)(Cc1ccc(O)cc1)NCC(O)c1ccc(O)c(O)c1 (centres undefined),7.22,1.2
CNC(C)C(O)c1ccccc1 (centres undefined),5.04,
NCC(O)c1cccc(Cl)c1 (centres undefined),4.08,
NC(CCO)C(O)c1ccccc1 (centres undefined),4.29,
CC(CCc1ccc(O)cc1)NCCc1ccc(O)c(O)c1 (centres undefined),4.62,0.25
CC(N)C(O)c1cccc(O)c1 (centres undefined),4.46,
CC(Cc1ccc2c(c1)OCO2)NCC(O)c1ccc(O)c(O)c1 (centres undefined),6.17,1.1
Oc1ccc(CCNCCc2ccc(O)c(O)c2)cc1,4.33,0.25
Oc1ccc(CCCNCCc2ccc(O)c(O)c2)cc1,4.64,0.17
CC(NCCc1ccc(O)cc1)C(O)c1ccc(O)cc1 (centres undefined),5.06,
CC(N)C(O)c1ccc(O)c(O)c1 (centres undefined),4.55,0.87
CNCC(O)c1cccc(NS(C)(=O)=O)c1 (centres undefined),4.19,
NCCc1ccccc1,3.7,
CCC(NC1CCCC1)C(O)c1ccc(O)c(O)c1 (centres undefined),4.41,0.64
NC[C@H](O)c1ccc(O)c(O)c1,< 3.7,
CNCC(O)c1cccc(O)c1 (centres undefined),4.28,
NCCc1ccc(O)cc1,< 3.7,
CNC[C@H](O)c1ccc(O)c(O)c1,5.07,0.75
COc1cccc(C(O)C(C)NC(C)C)c1 (centres undefined),5.11,
NCCc1ccc(O)c(O)c1,< 3.7,
CC(C)(Cc1ccccc1)NCC(O)c1ccc(O)c(NS(C)(=O)=O)c1 (centres undefined),7.85,0.27
CC(CCc1ccccc1)NC(C)C(O)c1ccc(O)cc1 (centres undefined),6.74,
NCC(O)c1ccc(O)cc1 (centres undefined),< 3.7,
CC(Cc1ccc(O)cc1)NCC(O)c1ccc(O)c(O)c1 (centres undefined),6.17,1.1
CCC(N)C(O)c1ccc(O)c(O)c1 (centres undefined),4.74,0.71
CC(COc1ccccc1)NC(C)C(O)c1ccc(O)c(CS(=O)(=O)N(C)C)c1 (centres undefined),7.12,
CCNCC(O)c1cccc(O)c1 (centres undefined),4.66,
CC(COc1ccccc1)NC(C)C(O)c1ccc(O)cc1 (centres undefined),5.85,

# Source: ChEMBL document CHEMBL3244136, “Structure-activity study of beta-adrenergic agents using the SIMCA method of pattern recognition” (J Med Chem, 1978)
